From ChEMBL document CHEMBL5291721, “A preclinical secondary pharmacology resource illuminates target-adverse drug reaction associations of marketed drugs” (Nat Commun, 2023) come the findings set out here.

The target of assay [1] is T1, Alpha-1A adrenergic receptor (Homo sapiens, UniProt P35348).
T1 sequence (P35348 whole entry): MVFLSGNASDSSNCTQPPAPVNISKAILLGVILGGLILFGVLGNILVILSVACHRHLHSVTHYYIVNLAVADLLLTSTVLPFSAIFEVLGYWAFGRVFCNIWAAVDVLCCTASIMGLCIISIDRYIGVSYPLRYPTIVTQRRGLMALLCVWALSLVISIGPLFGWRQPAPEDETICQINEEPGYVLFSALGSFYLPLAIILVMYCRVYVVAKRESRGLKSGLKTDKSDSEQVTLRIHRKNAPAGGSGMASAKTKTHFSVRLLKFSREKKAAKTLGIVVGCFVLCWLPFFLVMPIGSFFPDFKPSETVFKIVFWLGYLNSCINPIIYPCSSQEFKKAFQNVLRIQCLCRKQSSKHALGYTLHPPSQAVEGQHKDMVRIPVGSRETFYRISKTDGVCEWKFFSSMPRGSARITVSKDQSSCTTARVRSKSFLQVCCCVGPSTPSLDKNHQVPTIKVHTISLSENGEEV

The target of assay [2] is T2, Muscarinic acetylcholine receptor M1 (Homo sapiens, UniProt P11229).
T2 sequence (P11229 whole entry): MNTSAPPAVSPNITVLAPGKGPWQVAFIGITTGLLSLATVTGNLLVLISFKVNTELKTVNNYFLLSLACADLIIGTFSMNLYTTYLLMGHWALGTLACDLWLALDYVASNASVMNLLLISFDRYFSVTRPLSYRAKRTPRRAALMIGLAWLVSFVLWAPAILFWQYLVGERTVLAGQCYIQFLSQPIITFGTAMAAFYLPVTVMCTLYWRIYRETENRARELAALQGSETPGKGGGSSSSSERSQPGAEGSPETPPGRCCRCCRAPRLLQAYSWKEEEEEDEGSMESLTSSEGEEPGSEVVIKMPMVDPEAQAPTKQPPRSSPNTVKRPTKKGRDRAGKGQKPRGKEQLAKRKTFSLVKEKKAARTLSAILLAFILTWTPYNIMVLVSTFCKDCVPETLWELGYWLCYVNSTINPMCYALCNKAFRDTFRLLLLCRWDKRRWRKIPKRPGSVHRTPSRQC
It counts as functional.

The target of assay [3] is T3, Gamma-aminobutyric acid receptor subunit alpha-1/alpha-2/beta-2/gamma-2 (Homo sapiens, UniProt P14867+P18507+P47869+P47870). It counts as functional, cell-based.
T3 sequence (P14867 whole entry): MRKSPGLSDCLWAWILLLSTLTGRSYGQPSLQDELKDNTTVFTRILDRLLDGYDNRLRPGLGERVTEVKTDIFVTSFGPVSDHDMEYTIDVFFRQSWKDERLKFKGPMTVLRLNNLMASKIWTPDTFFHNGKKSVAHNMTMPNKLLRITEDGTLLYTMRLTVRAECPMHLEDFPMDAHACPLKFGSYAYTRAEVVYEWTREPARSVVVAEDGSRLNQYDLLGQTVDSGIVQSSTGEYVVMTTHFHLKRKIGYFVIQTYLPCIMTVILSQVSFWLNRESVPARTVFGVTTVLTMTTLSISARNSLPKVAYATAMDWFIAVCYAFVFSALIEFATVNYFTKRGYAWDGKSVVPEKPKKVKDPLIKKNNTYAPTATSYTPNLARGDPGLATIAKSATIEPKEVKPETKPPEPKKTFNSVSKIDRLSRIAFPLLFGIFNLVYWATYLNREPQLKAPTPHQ
T3 sequence (P47870 whole entry): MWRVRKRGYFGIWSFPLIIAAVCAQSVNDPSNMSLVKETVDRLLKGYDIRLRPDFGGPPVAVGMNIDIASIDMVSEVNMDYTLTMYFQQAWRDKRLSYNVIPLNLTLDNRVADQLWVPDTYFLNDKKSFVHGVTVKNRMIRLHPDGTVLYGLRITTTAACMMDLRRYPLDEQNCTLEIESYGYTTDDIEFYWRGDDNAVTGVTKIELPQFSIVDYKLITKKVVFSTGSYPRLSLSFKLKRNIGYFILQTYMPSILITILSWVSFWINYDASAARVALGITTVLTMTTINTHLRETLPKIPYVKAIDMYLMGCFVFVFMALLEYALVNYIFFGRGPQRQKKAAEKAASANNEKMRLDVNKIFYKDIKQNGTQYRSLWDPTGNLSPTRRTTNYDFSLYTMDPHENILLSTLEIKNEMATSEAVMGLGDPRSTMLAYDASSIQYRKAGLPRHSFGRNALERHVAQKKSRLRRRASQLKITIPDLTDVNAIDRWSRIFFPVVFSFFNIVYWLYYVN
T3 sequence (P18507 whole entry): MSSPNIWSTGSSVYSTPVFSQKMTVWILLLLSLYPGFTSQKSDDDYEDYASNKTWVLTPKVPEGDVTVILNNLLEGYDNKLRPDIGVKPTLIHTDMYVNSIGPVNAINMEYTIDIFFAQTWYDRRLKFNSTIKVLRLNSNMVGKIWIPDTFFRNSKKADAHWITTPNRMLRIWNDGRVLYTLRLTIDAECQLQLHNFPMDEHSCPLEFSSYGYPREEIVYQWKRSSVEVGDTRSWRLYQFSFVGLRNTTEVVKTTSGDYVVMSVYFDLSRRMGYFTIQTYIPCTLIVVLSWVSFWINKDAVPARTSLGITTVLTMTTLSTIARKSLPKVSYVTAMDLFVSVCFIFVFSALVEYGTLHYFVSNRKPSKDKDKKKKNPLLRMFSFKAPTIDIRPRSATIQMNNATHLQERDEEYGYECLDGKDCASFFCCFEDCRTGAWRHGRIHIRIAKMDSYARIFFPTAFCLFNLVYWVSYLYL
T3 sequence (P47869 whole entry): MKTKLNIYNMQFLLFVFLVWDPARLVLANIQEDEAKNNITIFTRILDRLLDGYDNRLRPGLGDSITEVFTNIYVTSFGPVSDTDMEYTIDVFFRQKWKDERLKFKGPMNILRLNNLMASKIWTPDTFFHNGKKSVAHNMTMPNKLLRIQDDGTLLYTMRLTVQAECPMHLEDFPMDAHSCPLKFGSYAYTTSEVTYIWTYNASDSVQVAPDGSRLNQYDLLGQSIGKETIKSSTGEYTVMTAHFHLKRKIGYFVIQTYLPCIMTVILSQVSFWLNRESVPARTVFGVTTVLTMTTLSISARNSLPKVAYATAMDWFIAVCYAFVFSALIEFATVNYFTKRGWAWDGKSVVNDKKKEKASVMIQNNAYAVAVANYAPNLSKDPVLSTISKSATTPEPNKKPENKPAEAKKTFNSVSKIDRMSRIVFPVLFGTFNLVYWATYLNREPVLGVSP
The target of assay [4] is T3, Gamma-aminobutyric acid receptor subunit alpha-1/alpha-2/beta-2/gamma-2. It counts as functional, cell-based. The source holds these as a separate data set.
The target in assay [5] is T4, Gastric inhibitory polypeptide receptor (Homo sapiens, UniProt P48546).
T4 sequence (P48546 whole entry): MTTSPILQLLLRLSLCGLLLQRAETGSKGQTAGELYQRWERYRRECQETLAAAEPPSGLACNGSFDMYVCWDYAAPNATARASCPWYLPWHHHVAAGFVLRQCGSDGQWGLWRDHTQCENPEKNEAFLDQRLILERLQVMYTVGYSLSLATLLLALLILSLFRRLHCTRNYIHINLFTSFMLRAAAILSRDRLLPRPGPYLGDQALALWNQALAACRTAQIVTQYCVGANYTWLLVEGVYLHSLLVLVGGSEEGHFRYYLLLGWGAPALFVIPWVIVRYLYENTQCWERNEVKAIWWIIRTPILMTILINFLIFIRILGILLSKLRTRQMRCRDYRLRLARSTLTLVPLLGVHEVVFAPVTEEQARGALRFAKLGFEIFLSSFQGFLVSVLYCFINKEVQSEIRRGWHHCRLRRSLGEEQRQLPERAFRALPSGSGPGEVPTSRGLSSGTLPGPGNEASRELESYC

Assay [6] concerns the target Muscarinic acetylcholine receptor M3 (Homo sapiens, UniProt P20309).
Assay [7] deals with 5-hydroxytryptamine receptor 2B (Homo sapiens, UniProt P41595).
Sequence of 5-hydroxytryptamine receptor 2B (P41595 whole entry): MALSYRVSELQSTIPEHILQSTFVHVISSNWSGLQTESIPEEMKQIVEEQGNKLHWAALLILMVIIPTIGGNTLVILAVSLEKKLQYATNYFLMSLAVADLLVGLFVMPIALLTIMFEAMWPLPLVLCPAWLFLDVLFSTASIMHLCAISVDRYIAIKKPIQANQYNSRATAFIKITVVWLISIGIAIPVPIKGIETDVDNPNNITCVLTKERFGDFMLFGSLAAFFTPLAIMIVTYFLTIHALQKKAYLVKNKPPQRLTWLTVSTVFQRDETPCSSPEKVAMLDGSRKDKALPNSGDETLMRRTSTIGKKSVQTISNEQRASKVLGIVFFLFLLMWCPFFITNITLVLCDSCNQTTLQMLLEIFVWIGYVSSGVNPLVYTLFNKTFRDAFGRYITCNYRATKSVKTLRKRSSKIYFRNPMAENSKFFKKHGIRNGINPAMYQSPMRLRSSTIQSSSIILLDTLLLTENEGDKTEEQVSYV
Assay [8] has as its target T5, B1 bradykinin receptor (Homo sapiens, UniProt P46663).
T5 sequence (P46663 whole entry): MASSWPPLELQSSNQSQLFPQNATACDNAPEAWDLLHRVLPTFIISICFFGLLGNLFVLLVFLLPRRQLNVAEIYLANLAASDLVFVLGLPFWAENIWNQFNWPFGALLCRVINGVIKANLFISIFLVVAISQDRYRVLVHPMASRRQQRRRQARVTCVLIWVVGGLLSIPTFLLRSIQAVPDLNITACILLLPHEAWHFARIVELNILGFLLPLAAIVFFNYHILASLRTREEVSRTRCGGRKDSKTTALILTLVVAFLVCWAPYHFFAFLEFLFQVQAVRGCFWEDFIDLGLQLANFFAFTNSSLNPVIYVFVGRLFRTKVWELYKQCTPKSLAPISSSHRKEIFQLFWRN

For assay [9], the target named is T6, Alpha-2B adrenergic receptor (Homo sapiens, UniProt P18089).
T6 sequence (P18089 whole entry): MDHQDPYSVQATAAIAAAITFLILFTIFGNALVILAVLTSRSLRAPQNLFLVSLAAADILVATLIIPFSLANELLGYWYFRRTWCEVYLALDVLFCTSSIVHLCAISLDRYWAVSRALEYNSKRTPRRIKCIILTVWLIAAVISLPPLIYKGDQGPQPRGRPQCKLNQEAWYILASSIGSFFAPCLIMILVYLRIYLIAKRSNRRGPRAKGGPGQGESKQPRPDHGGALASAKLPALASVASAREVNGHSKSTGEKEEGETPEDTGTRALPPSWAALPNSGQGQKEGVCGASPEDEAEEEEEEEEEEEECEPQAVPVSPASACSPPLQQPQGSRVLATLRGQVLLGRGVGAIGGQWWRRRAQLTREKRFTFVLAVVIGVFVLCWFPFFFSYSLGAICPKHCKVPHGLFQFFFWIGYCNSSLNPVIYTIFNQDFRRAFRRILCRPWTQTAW

For assay [10], the target named is Voltage-dependent N-type calcium channel subunit alpha-1B (Rattus norvegicus, UniProt Q02294). It counts as functional.
Sequence of Voltage-dependent N-type calcium channel subunit alpha-1B (Q02294 whole entry): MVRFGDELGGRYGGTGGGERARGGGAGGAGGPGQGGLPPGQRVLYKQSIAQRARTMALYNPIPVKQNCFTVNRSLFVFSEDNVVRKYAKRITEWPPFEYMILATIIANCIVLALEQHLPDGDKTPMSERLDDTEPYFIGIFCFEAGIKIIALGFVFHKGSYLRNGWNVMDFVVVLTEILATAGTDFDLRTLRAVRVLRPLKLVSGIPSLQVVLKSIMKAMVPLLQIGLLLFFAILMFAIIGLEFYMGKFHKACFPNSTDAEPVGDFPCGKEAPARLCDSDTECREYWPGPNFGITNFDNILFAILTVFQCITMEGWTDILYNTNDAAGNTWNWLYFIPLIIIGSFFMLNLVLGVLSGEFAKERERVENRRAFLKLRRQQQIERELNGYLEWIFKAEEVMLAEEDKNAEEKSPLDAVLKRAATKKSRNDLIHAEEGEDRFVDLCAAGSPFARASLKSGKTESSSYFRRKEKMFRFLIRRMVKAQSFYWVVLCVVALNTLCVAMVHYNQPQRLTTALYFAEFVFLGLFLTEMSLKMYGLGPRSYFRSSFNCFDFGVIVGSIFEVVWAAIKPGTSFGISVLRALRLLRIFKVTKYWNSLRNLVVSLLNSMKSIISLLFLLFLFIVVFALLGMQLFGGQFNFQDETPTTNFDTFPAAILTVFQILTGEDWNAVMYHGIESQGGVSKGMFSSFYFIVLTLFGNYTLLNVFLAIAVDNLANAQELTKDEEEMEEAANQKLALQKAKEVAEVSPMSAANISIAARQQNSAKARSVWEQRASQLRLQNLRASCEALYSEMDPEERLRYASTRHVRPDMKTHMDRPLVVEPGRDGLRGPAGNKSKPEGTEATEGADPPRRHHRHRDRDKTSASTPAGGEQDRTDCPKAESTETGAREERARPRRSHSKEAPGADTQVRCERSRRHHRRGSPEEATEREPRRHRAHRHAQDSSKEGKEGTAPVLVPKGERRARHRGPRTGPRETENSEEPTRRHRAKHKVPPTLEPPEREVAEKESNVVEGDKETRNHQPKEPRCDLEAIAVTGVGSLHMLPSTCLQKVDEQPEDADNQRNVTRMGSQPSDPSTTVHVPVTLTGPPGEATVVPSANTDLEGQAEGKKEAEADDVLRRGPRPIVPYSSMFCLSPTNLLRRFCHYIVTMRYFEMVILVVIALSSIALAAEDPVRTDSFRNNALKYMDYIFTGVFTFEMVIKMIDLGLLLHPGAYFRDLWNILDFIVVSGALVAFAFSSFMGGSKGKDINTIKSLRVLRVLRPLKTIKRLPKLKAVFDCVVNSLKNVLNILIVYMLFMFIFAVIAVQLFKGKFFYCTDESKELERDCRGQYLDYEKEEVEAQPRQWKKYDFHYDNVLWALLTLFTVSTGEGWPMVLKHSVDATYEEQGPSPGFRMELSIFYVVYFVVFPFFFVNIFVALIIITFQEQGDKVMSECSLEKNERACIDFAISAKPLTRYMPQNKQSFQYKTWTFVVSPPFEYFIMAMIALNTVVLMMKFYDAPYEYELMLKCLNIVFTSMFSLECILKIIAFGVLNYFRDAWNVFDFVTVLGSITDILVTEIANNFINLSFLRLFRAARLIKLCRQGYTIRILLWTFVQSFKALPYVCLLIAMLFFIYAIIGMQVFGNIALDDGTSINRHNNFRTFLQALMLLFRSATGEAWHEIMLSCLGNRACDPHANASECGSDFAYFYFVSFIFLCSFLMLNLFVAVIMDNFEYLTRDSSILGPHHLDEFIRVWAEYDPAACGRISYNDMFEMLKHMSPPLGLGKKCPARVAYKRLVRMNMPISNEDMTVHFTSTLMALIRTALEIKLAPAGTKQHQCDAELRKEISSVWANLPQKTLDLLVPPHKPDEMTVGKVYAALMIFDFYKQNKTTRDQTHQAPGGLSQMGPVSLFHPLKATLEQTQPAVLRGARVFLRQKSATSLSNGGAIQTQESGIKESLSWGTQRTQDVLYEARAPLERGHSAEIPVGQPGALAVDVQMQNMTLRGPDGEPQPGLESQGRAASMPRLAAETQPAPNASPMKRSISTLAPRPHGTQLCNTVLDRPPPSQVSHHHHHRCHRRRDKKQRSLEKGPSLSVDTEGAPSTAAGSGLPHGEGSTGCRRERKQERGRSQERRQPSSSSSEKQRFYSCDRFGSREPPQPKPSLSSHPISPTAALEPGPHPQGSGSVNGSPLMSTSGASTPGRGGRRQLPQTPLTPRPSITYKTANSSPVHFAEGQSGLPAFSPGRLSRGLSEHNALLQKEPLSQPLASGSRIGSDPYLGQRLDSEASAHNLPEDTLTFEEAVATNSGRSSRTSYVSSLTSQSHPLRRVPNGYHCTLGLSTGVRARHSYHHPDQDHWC
Further: assay procedure not described here.

As for `CN(C)CCc1c[nH]c2ccc(Cn3cncn3)cc12` [RIZATRIPTAN], the AC50 (in general, the concentration at which the activity in the assay is half-maximal) in [1] is over 10 µM; in assay [2], over 30 µM; in [3], over 30 µM; in [4] it was over 30 µM; in assay [5], over 30 µM; in [6], over 30 µM. The AC50 in assay [7] was 12 µM; in assay [8], over 30 µM; in assay [9], over 30 µM; in assay [10], over 10 µM.

Turning to `C=CC[C@@H]1/C=C(\C)C[C@H](C)C[C@H](OC)[C@H]2O[C@@](O)(C(=O)C(=O)N3CCCC[C@H]3C(=O)O[C@H](/C(C)=C/[C@@H]3CC[C@@H](O)[C@H](OC)C3)[C@H](C)[C@@H](O)CC1=O)[C@H](C)C[C@@H]2OC` [TACROLIMUS ANHYDROUS], the AC50 in assay [1] was over 10 µM; in [3] it was over 30 µM; in assay [4] it was over 30 µM; in [5], over 30 µM; in assay [7], over 10 µM; in assay [8], over 30 µM. In addition, in assay [10], the AC50 is over 10 µM.
